These results are taken from patent publication US4405638A, “2-Methoxyphenyl esters of N-substituted amino acids, a process for their preparation and pharmaceutical compositions containing them” (Sigma-Tau Industrie Farmaceutiche Riunite S.p.A, priority 1981, dated 1983).

One series concerns bronchial secretion. Nature of the series: Expectorating activity: amount of bronchial secretion in rabbits (method of Perry et al.). The series is classed as in vivo, rabbit. As to conditions: male rabbits, 20 to 40 mg. The procedure: The experimentation was carried out on male rabbits, weighting 2-3 kg, narcotized with ethyl urethane, according to the method described by Perry et al. (J. Pharm. Exp. Ther. 73, 65 (1941)). Each compound of formula (I) was administered to 5 rabbits in doses ranging from 20 to 40 mg, 1 hour after the incannulation. The control group (8 rabbits) was given only water. The amount of secretion was determined 1, 2 and 4 hours after the administration.
Effects of compounds of formula (I) on the bronchial secretion
Percentage variations (± standard error) of the
bronchial secretion, in comparison with the
basic values, in the following times after the […]

The nature of series [1]: Acute toxicity, LD50 by the Weil method, intraperitoneal administration in the mouse. The settings on record: in vivo, ip, N = 4 K = 4, confidential limits given. An excerpt: LD50 of the compounds of formula (I), evaluated by the Weil method ("Tables for convenient calculation of median effective dose (LD50 or ED50) and instructions in their use", Biometrics, 249-253, 1952), by intraperitoneal administration in the mouse.
LD50 and confidential limits, mg/kg i.p., of the
compounds of formula I. Weil method, N = 4 K = 4

The subject of the next series is bronchial tree. Nature of the series: Bronchosecretogogic activity: sodium fluoresceine method in the rat (Mawatari). The series is classed as in vivo. As to conditions: 500 mg/kg i.p. The procedure:
The bronchosecretogogic activity of compound (2), i.e. 2-methoxyphenyl N-[2-(2-thenoylthio)propionyl]aminoacetate, was tested according to the method of the sodium fluoresceine in the rat, as described by Mawatari (Experimental Studies on the expectorant action of several drugs, Kagoshima Daigaku Igaku Zasshi 27, 561 (1976)), in comparison with S-carboxymethyl-cysteine (CMC) and N-(2-mercaptopropionyl)glycine (MPG).
Removal of the sodium fluoresceine from the bronchial
tree (percentage increase versus the controls).

Series [2] can be described thus: In vivo pharmacokinetics in the rat. The source says:
After administration of equimolecular doses of N-[2-(2-thenoylthio)propionyl]glycine and of the corresponding 2-methoxyphenyl ester (compound (2)), higher lung concentrations of N-(2-mercaptopropionyl)glycine and thiophene-2-carboxylic acid are found in the case of compound (2) administration.

In the next series the test system is esterase. Description: In vitro enzymatic hydrolysis of compound (2). The series is classed as in vitro ADME. Here is the method: "In vitro" and "in vivo" tests were carried out.
Another series concerns cough. Description: Antitussive activity: cough induced by citric acid aerosol in Guinea pigs. The series is classed as in vivo. Here is the method: This activity was tested on Guinea pigs, in which cough was induced by citric acid aerosol, in comparison with codeine. Compound (2) was administered per os and intraperiotoneally.
Antitussive activity. Cough induced in Guinea pigs

The mark [3] stands for this setting: equimolecular doses, versus N-[2-(2-thenoylthio)propionyl]glycine.

On to `COc1ccccc1OC(=O)C(CS)NC(=O)C(C)SC(=O)c1cccs1` (stereo not drawn) [(8), 2-methoxyphenyl ester of N-[2-(2-thenoylthio)propionyl]cysteine], for which the “Percentage variations (± standard error) of the bronchial secretion, in comparison with the basic values” (shortened to “Percentage variations (± standard error)”) with bronchial secretion (1h after the administration) is reported as “+1,8 ± 0,04%”; in the series on bronchial secretion (2h after the administration), “+1,7 ± 0,09%”; in the series with bronchial secretion (4h after the administration), “+2,7 ± 0,05%”. In series [1], this molecule registered an LD50 of 980 mg/kg.

Turning to `COc1ccccc1OC(=O)C(CSCC(=O)O)NC(=O)C(C)SC(=O)c1cccs1` (stereo not drawn) [(10), 2-methoxyphenyl ester of N-[2-(2-thenoylthio)propionyl]-S-carboxymehtylcysteine], the “Percentage variations (± standard error)” value with bronchial secretion (1h after the administration) is recorded as “+0,8 ± 0,02%”; in the series with bronchial secretion (2h after the administration) it was “+1,3 ± 0,04%”; in the series with bronchial secretion (4h after the administration), “+2,1 ± 0,03%”. Moreover, the LD50 in series [1] turned out to be 1340 mg/kg.

For `COc1ccccc1OC(=O)CNC(=O)C(C)SC(=O)c1cccs1` (stereo not drawn) [Compound (2), 2-methoxyphenyl N-[2-(2-thenoylthio)propionyl]aminoacetate], the “Percentage variations (± standard error)” value with bronchial secretion (1h after the administration) is listed as “+0,3 ± 0,01%”. The “Percentage variations (± standard error)” value with bronchial secretion (2h after the administration) is “+0,7 ± 0,03%”. In addition, the “Percentage variations (± standard error)” value in the series with bronchial secretion (4h after the administration) is listed as “+1,4 ± 0,05%”. Also, in the series on bronchial tree, the “Removal of the sodium fluoresceine from the bronchial tree (percentage increase versus the controls)” value was 123.5%; the “bronchosecretogogic activity, comparison with CMC and MPG” value is “much higher than CMC and MPG”. This molecule displayed an LD50 in series [1] of 1240 mg/kg. Further, the pulmonary tropism result in series [2] was “high pulmonary tropism”. In addition, in series [2] (setting [3]), the “lung concentrations of N-(2-mercaptopropionyl)glycine” value is reported as “higher” and the “lung concentrations of thiophene-2-carboxylic acid” value was “higher”. Further, in series [2] (oral administration), the absorption result is “mostly absorbed as such after oral administration”. Further, in the series with esterase, the enzymatic hydrolysis products entry is “enzymetically hydrolized giving N-(2-mercaptopropionyl)glycine, thiophene-2-carboxylic acid and guaiacol”; the “tissue with highest esterase activity” value is “highest esterase activity is showed by the lung”. Moreover, the “% inhibition of the cough” value with cough (100 mg/kg i.p.) came to 95.8%. The “% inhibition of the cough” value in the series on cough (500 mg/kg per os) came to 82.3%.

Take `COc1ccccc1OC(=O)C(CSC(C)=O)NC(=O)C(C)SC(=O)c1cccs1` (stereo not drawn) [(9), 2-methoxyphenyl ester of N-[2-(2-thenoylthio)propionyl]-S-acetylcysteine]: the “Percentage variations (± standard error)” value in the series with bronchial secretion (1h after the administration) was “+1,9 ± 0,03%”; in the series on bronchial secretion (2h after the administration) it was “+1,5 ± 0,04%”; with bronchial secretion (4h after the administration), “+2,4 ± 0,04%”. For the same molecule, the LD50 in series [1] was 1230 mg/kg.

`COc1ccccc1OC(=O)C(CS)NC(C)=O` (stereo not drawn) [(5), 2-methoxyphenyl ester of N-acetylcysteine]: the “Percentage variations (± standard error)” value with bronchial secretion (1h after the administration) is on record as “+0,9 ± 0,05%”; in the series with bronchial secretion (2h after the administration), “+2,1 ± 0,01%”; with bronchial secretion (4h after the administration), “+3,8 ± 0,09%”. In series [1], this molecule showed an LD50 of 1270 mg/kg.

Consider `COc1ccc2c3c1O[C@H]1[C@@H](O)C=C[C@H]4[C@@H](C2)N(C)CC[C@@]341` [codeine, reference compound], for which the “% inhibition of the cough” value is listed as 90.2% in the series with cough (12.5 mg/kg i.p.) and 75.6% with cough (25 mg/kg per os).

Consider `COc1ccccc1OC(=O)C(C)NC(=O)C(C)SC(=O)c1cccs1` (stereo not drawn) [(4), 2-methoxyphenyl ester of N-[2-(2-thenoylthio)propionyl]alanine], for which the figures for the “Percentage variations (± standard error)” value in the series with bronchial secretion (1h after the administration), with bronchial secretion (2h after the administration) and with bronchial secretion (4h after the administration) were “+1,5 ± 0,05%”, “+1,9 ± 0,08%” and “+2,5 ± 0,09%”, respectively. The same molecule registered an LD50 in series [1] of 960 mg/kg.

For the molecule `COc1ccccc1OC(=O)C(CSC(C)=O)NC(C)=O` (stereo not drawn) [(6), 2-methoxyphenyl ester of N,S-diacetylcysteine], the “Percentage variations (± standard error)” value with bronchial secretion (1h after the administration) is “+0,4 ± 0,05%”; in the series on bronchial secretion (2h after the administration) it was “+2,1 ± 0,05%”; with bronchial secretion (4h after the administration) it was “+1,9 ± 0,04%”. Also, the LD50 in series [1] was found to be 1580 mg/kg.

In the case of `COc1ccccc1OC(=O)C(C)NC(C)=O` (stereo not drawn) [(3), 2-methoxyphenyl ester of N-acetylalanine], the “Percentage variations (± standard error)” value in the series with bronchial secretion (1h after the administration) is given as “+0,8 ± 0,04%”; in the series on bronchial secretion (2h after the administration), “+1,2 ± 0,04%”; in the series on bronchial secretion (4h after the administration), “+2,7 ± 0,08%”. In addition, the LD50 in series [1] came out at 1150 mg/kg.

For `COc1ccccc1OC(=O)CNC(C)=O` [(1), 2-methoxyphenyl ester of N-acetlyglycine], the “Percentage variations (± standard error)” value with bronchial secretion (1h after the administration) is reported as “+1,3 ± 0,02%”; with bronchial secretion (2h after the administration), -1,4 ± 0,03%; in the series on bronchial secretion (4h after the administration), “+2,3 ± 0,07%”. The median lethal dose (LD50) in series [1] turned out to be 1010 mg/kg.

For the molecule `COc1ccccc1OC(=O)C(CSCC(=O)O)NC(C)=O` (stereo not drawn) [(7), 2-methoxyphenyl ester of N-acetyl-S-carboxymethylcysteine], the entries for the “Percentage variations (± standard error)” value in the series on bronchial secretion (1h after the administration), in the series on bronchial secretion (2h after the administration) and in the series on bronchial secretion (4h after the administration) were “+0,5 ± 0,03%”, “+0,7 ± 0,07%” and “+1,9 ± 0,09%”, respectively. Further, the LD50 in series [1] came to 1250 mg/kg.

For the molecule `N[C@@H](CSCC(=O)O)C(=O)O` [CMC, S-carboxymethyl-cysteine, reference compound], in the series with bronchial tree, the “Removal of the sodium fluoresceine from the bronchial tree (percentage increase versus the controls)” value is listed as 33.4%.

As to `CC(S)C(=O)NCC(=O)O` (stereo not drawn) [MPG, N-(2-mercaptopropionyl)glycine, reference compound], the “Removal of the sodium fluoresceine from the bronchial tree (percentage increase versus the controls)” value in the series with bronchial tree is given as 21.9%.

By LD50 is commonly meant the dose expected to kill half of the subjects tested.
